According to PubChem BioAssay AID248 (DTP/NCI, 2004):
Where “and” joins values, the source holds several entries; their conditions need not be identical. Equal entries are not always repeated. Toxic doses and inconclusive results are not listed. No stated cut-off is given here; in the data, active means T/C of 150% or more; inactive means T/C below 125%.

Tested on: L1210 leukemia ip in BDF1 mice, survival T/C
Assay: NCI In Vivo Anticancer Drug Screen. Data for tumor model L1210 Leukemia (intraperitoneal) in B6D2F1 (BDF1) mice
Details: endpoint: mean survival time, higher = longer survival
Outline: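 Each compound was tested against a transplantable tumor grown in mice. The endpoint was survival, with treated animals benchmarked against vehicle controls as a simple ratio.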

[1] = dose: 100.0 mg/kg/injection, schedule: Q01DX009 (ip), vehicle: Klucel (hydroxypropylcellulose) (HPC)
[2] = dose: 200.0 mg/kg/injection, schedule: Q01DX009 (ip), vehicle: Klucel (hydroxypropylcellulose) (HPC)
[3] = dose: 100.0 mg/kg/injection, schedule: Q04DX003 (ip), vehicle: saline with Tween-80
[4] = dose: 200.0 mg/kg/injection, schedule: Q04DX003 (ip), vehicle: saline with Tween-80
[5] = dose: 100.0 mg/kg/injection, schedule: Q04DX003 (ip), vehicle: Klucel (hydroxypropylcellulose) (HPC)
[6] = dose: 200.0 mg/kg/injection, schedule: Q04DX003 (ip), vehicle: Klucel (hydroxypropylcellulose) (HPC)
[7] = dose: 400.0 mg/kg/injection, schedule: Q01DX009 (ip), vehicle: Klucel (hydroxypropylcellulose) (HPC)
[8] = dose: 400.0 mg/kg/injection, schedule: Q04DX003 (ip), vehicle: Klucel (hydroxypropylcellulose) (HPC)
[9] = dose: 50.0 mg/kg/injection, schedule: Q01DX009 (ip), vehicle: Klucel (hydroxypropylcellulose) (HPC)
[10] = dose: 100.0 mg/kg/injection, schedule: Q01DX001 (ip), vehicle: other
[11] = dose: 100.0 mg/kg/injection, schedule: Q04DX002 (ip), vehicle: Klucel (hydroxypropylcellulose) (HPC)
[12] = dose: 200.0 mg/kg/injection, schedule: Q01DX001 (ip), vehicle: other
[13] = dose: 200.0 mg/kg/injection, schedule: Q04DX002 (ip), vehicle: Klucel (hydroxypropylcellulose) (HPC)
[14] = dose: 400.0 mg/kg/injection, schedule: Q01DX001 (ip), vehicle: other
[15] = dose: 400.0 mg/kg/injection, schedule: Q04DX002 (ip), vehicle: Klucel (hydroxypropylcellulose) (HPC)
[16] = dose: 100.0 mg/kg/injection, schedule: Q01DX009 (ip), vehicle: saline with Tween-80
[17] = dose: 100.0 mg/kg/injection, schedule: Q04DX002 (ip), vehicle: saline with Tween-80
[18] = dose: 200.0 mg/kg/injection, schedule: Q01DX009 (ip), vehicle: saline with Tween-80
[19] = dose: 200.0 mg/kg/injection, schedule: Q04DX002 (ip), vehicle: saline with Tween-80
[20] = dose: 400.0 mg/kg/injection, schedule: Q01DX009 (ip), vehicle: saline with Tween-80
[21] = dose: 400.0 mg/kg/injection, schedule: Q04DX002 (ip), vehicle: saline with Tween-80
[22] = dose: 100.0 mg/kg/injection, schedule: Q01DX001 (ip), vehicle: saline
[23] = dose: 200.0 mg/kg/injection, schedule: Q01DX001 (ip), vehicle: saline
[24] = dose: 100.0 mg/kg/injection, schedule: Q04DX002 (ip), vehicle: saline
[25] = dose: 50.0 mg/kg/injection, schedule: Q01DX009 (ip), vehicle: saline
[26] = dose: 100.0 mg/kg/injection, schedule: Q01DX009 (ip), vehicle: saline
[27] = dose: 200.0 mg/kg/injection, schedule: Q01DX009 (ip), vehicle: saline
[28] = dose: 400.0 mg/kg/injection, schedule: Q04DX003 (ip), vehicle: saline with Tween-80

Measured: T/C

Cc1ccc(C(C)C)cc1NC(=O)Nc1ccccc1F
inactive: [1] 91 % of control | [2] 86 % of control

Cc1ccc(SNc2ccccc2)cc1
inactive: [3] 92 % of control | [4] 100 % of control

CCCCCCCC(=O)c1ccc(NC(C)=O)cc1
inactive: [1] 103 % of control | [5] 99 % of control | [2] 95 % of control | [6] 92 % of control | [7] 102 % of control | [8] 100 % of control

CNS(=O)(=O)c1ccccc1CC(O)(c1ccccc1)c1ccccc1
inactive: dose: 100.0 mg/kg/injection, schedule: Q01DX001 (ip), vehicle: steriod suspending solution 88 % of control | dose: 200.0 mg/kg/injection, schedule: Q01DX001 (ip), vehicle: steriod suspending solution 87 % of control

NC(CSCc1ccccc1)C(=O)OCc1ccccc1 (configuration not stated)
inactive: [1] 98 % of control | [5] 100 % of control | [2] 92 % of control | [6] 89 % of control | [7] 95 % of control | [8] 96 % of control

CC(=O)OCC(OC(C)=O)C(OC(C)=O)C(C#N)OC(C)=O (configuration not stated)
inactive: dose: 12.5 mg/kg/injection, schedule: Q01DX009 (ip), vehicle: Klucel (hydroxypropylcellulose) (HPC) 95 % of control | dose: 12.5 mg/kg/injection, schedule: Q04DX003 (ip), vehicle: Klucel (hydroxypropylcellulose) (HPC) 102 % of control | dose: 25.0 mg/kg/injection, schedule: Q01DX009 (ip), vehicle: Klucel (hydroxypropylcellulose) (HPC) 95 % of control | dose: 25.0 mg/kg/injection, schedule: Q04DX003 (ip), vehicle: Klucel (hydroxypropylcellulose) (HPC) 96 % of control | [9] 102 % of control | dose: 50.0 mg/kg/injection, schedule: Q04DX003 (ip), vehicle: Klucel (hydroxypropylcellulose) (HPC) 102 % of control | [3] 102 % of control | [4] 102 % of control

COc1cccc(C(=O)O)c1[N+](=O)[O-]
inactive: dose: 50.0 mg/kg/injection, schedule: Q01DX001 (ip), vehicle: other 103 % of control | [10] 97 % of control | [11] 106 % of control | [12] 115 % of control | [13] 95 % of control | [14] 97 % of control | [15] 88 % of control

CCCCOC(=O)C1OC1c1ccccc1 (configuration not stated)
inactive: [16] 88 % of control | [17] 90 % of control | [18] 95 % of control | [19] 88 % of control | [20] 95 % of control | [21] 102 % of control

C=CCOc1cc[n+]([O-])cc1
inactive: [22] 100 % of control | [23] 105 % of control

NCC1OC(n2ccc(=O)[nH]c2=O)CC1O (configuration not stated)
inactive: dose: 25.0 mg/kg/injection, schedule: Q04DX002 (ip), vehicle: saline 93 % of control | dose: 50.0 mg/kg/injection, schedule: Q04DX002 (ip), vehicle: saline 101 % of control | [24] 108 % of control

CCOC(=O)/C=C(\C)c1ccc([N+](=O)[O-])cc1
inactive: dose: 100.0 mg/kg/injection, schedule: Q01DX001 (ip), vehicle: Klucel (hydroxypropylcellulose) (HPC) 107 % of control | dose: 200.0 mg/kg/injection, schedule: Q01DX001 (ip), vehicle: Klucel (hydroxypropylcellulose) (HPC) 100 % of control | dose: 400.0 mg/kg/injection, schedule: Q01DX001 (ip), vehicle: Klucel (hydroxypropylcellulose) (HPC) 97 % of control

Nc1ccc(S(=O)(=O)Nc2cnc3ccccc3n2)cc1
inactive: [25] 99 % of control | [26] 92 % of control | [24] 91 % of control | [27] 89 % of control | dose: 200.0 mg/kg/injection, schedule: Q04DX002 (ip), vehicle: saline 94 % of control

COc1ccc(C=Nc2ccccc2N=Cc2ccc(OC)c(OC)c2)cc1OC
inactive: [16] 106 % of control | [3] 96 % of control | [18] 97 % of control | [4] 93 % of control | [20] 106 % of control | [28] 93 % of control

C[n+]1ccc(/C=C\Nc2ccccc2)cc1
inactive: dose: 75.0 mg/kg/injection, schedule: Q01DX001 (ip), vehicle: other 94 % of control | dose: 150.0 mg/kg/injection, schedule: Q01DX001 (ip), vehicle: other 94 % of control | dose: 300.0 mg/kg/injection, schedule: Q01DX001 (ip), vehicle: other 94 % of control

COC(=O)/C=C(/Oc1cccc(C)c1)C(=O)OC
inactive: dose: 100.0 mg/kg/injection, schedule: Q04DX003 (ip), vehicle: other 101 % of control | dose: 200.0 mg/kg/injection, schedule: Q04DX003 (ip), vehicle: other 96 % of control | dose: 400.0 mg/kg/injection, schedule: Q04DX003 (ip), vehicle: other 96 % of control

CNC(C)C1CCC2C3CC=C4CC(O)CCC4(C)C3CCC12C (configuration not stated)
inactive: dose: 100.0 mg/kg/injection, schedule: Q01DX001 (sc), vehicle: steriod suspending solution 104 % of control | dose: 200.0 mg/kg/injection, schedule: Q01DX001 (sc), vehicle: steriod suspending solution 87 % of control | dose: 400.0 mg/kg/injection, schedule: Q01DX001 (sc), vehicle: steriod suspending solution 94 % of control

CSC(=S)NC#N
inactive: [25] 93 % of control | [26] 93 % of control | dose: 100.0 mg/kg/injection, schedule: Q04DX003 (ip), vehicle: saline 101 % of control | [27] 89 % of control | dose: 200.0 mg/kg/injection, schedule: Q04DX003 (ip), vehicle: saline 106 % of control | dose: 400.0 mg/kg/injection, schedule: Q04DX003 (ip), vehicle: saline 98 % of control

O=C(NN(c1ccc([N+](=O)[O-])cc1)c1ccc([N+](=O)[O-])cc1)c1ccccc1
inactive: [9] 103 % of control | [1] 100 % of control | [5] 94 % of control | [2] 102 % of control | [6] 93 % of control | [7] 102 % of control | [8] 94 % of control

O=C(CCc1ccccc1)NC(=S)Nc1ccc(I)cc1
inactive: dose: 12.5 mg/kg/injection, schedule: Q01DX009 (ip), vehicle: saline with Tween-80 94 % of control and 90 % of control | dose: 100.0 mg/kg/injection, schedule: Q01DX001 (ip), vehicle: saline with Tween-80 106 % of control | [17] 104 % of control | [3] 100 % of control | dose: 200.0 mg/kg/injection, schedule: Q01DX001 (ip), vehicle: saline with Tween-80 103 % of control | [19] 93 % of control and 101 % of control | [4] 97 % of control | dose: 400.0 mg/kg/injection, schedule: Q01DX001 (ip), vehicle: saline with Tween-80 91 % of control | [20] 95 % of control and 99 % of control | [21] 101 % of control and 90 % of control | [28] 96 % of control

CCOC(=O)CC(O)(COC)c1ccccc1 (configuration not stated)
inactive: dose: 50.0 mg/kg/injection, schedule: Q01DX001 (ip), vehicle: saline 114 % of control | [22] 100 % of control | [23] 109 % of control | dose: 400.0 mg/kg/injection, schedule: Q01DX001 (ip), vehicle: saline 97 % of control

O=NN1CCCCC1C(=O)O (configuration not stated)
inactive: [22] 98 % of control | [23] 102 % of control

O=C(c1ccco1)C(O)c1ccco1 (configuration not stated)
inactive: [11] 96 % of control | [13] 104 % of control

CCCCCCCC[Si](c1ccc(C)cc1)(c1ccc(C)cc1)c1ccc(C)cc1
inactive: [10] 97 % of control | [12] 95 % of control | [14] 97 % of control

COC(=O)C1CC(=O)N(Cc2ccccc2)C1 (configuration not stated)
inactive: [11] 89 % of control | [13] 100 % of control | [15] 92 % of control

Cc1c(NC(C)C)ccc(NC(C)C)c1C
inactive: dose: 100.0 mg/kg/injection, schedule: Q04DX002 (sc), vehicle: olive oil, sesame oil, peanut oil 100 % of control | dose: 200.0 mg/kg/injection, schedule: Q04DX002 (sc), vehicle: olive oil, sesame oil, peanut oil 100 % of control
